PMC5749289, “Cytotoxicity Study of Cyclopentapeptide Analogues of Marine Natural Product Galaxamide towards Human Breast Cancer Cells” (Oxidative Medicine and Cellular Longevity, 2017)
Converted amounts (≈) assume the structure as drawn. Values belong to the compound of their own block, whether it stands above or below them. Where a SMILES comes first, the peptide text is derived from it.

Tests used:
[1] = tested on: human breast carcinoma MCF-7; test: cells; type: cell-based
Protocol: (§1) Human hepatocellular carcinoma HepG2, human breast carcinoma MCF-7, human epitheloid cervix carcinoma HeLa, human breast carcinoma MB-MDA-231 cell lines, and a normal human umbilical vein endothelial cell line (HUVECs) were obtained from the China Cell Bank of the Institute of Biochemistry and were cultured in a DMEM culture medium (DMEM, Corning, NY, USA) containing 10% fetal bovine serum (FBS, Hyclone, Logan, UT, USA), 1% penicillin-streptomycin, and an antifungal agent in a 5% CO2-humidified atmosphere at 37°C. The culture medium was replaced once in a day. Trypsin digestion method was adopted for cell propagation. Upon reaching 80–90% confluence, the cells were rinsed twice with PBS. A certain amount of 0.25% trypsin digestion solution was then added and maintained for 3–5 min at 37°C. Afterward, DMEM culture medium containing 10% fetal bovine serum was added to terminate the digestion. The cells were then blown well to form single-cell suspensions.
(§2) The cell viability was determined by measuring the ability of cells to transform MTT (3-(4,5-dimethylthiazol-2-yl)-2,5-diphenyltetrazolium bromide) (GENView, Houston, TX, USA) to a purple formazan dye. The cells were seeded in 96-well cell culture plates at 2.5 × 10^3 cells/well for 24 h. The cells were then incubated with galaxamide and its analogues for 48 h. After incubation, 20 μL/well of MTT solution (5 mg/mL phosphate buffered saline) was added and incubated for 5 h. The medium was aspirated and replaced with 100 μL/well of DMSO to dissolve the formazan salt. The color intensity of the formazan solution, which reflects the cell growth condition, was measured at 570 nm using a microplate spectrophotometer (SpectroAma™ 250, Winooski, VT, USA).

[2] = tested on: human breast carcinoma MB-MDA-231; test: cells; type: cell-based; settings: 48 h
Protocol: as §1, §2

[3] = tested on: human epitheloid cervix carcinoma HeLa; test: cells; type: cell-based; settings: 48 h
Protocol: as §1, §2

[4] = tested on: human hepatocellular carcinoma HepG2; test: cells; type: cell-based; settings: 48 h
Protocol: as §1, §2

MCF-7 cells [5] = test: Intracellular ROS assay, DCFH-DA, flow cytometry; type: cell-based, human; settings: MCF-7, 2.5, 5.0 and 10.0 μg/mL, 48 h
Protocol: Two milliliters of cell suspension with a cell concentration of 1 × 10^5 cells/mL was inoculated per well in 6-well plates. After synchronization, the cells were incubated with galaxamide and representative analogue (0, 2.5, 5, and 10 μg/mL) for 48 h. Afterwards, the supernatant was aspirated and the cells were washed twice with PBS and digested with 0.25% trypsin. Then, DMEM supplemented with 10% fetal bovine serum was added to terminate digestion. The cells were suspended by pipetting, followed by centrifugation (1000 rpm, 5 min). The supernatant was aspirated and the cells were washed once with PBS and centrifuged again to obtain a cell pellet. The cells were resuspended by adding and thoroughly mixing […] in a microcentrifuge tube. The samples were then stained with DCFH-DA ([…]) and analyzed by flow cytometry.

MCF-7 cells [6] = test: Mitochondrial membrane potential, JC-1 staining, flow cytometry; type: cell-based, human; settings: MCF-7, 2.5, 5.0 and 10.0 μg/mL, 48 h
Protocol: The cell suspension (2 mL) with a concentration of 1 × 10^5 cells/mL was inoculated per well in 6-well plates for 12 h. After 48 h of incubation with galaxamide and representative compound at the concentration of 0, 2.5, 5, and 10 μg/mL, the supernatant was aspirated and the cells were washed twice with PBS and digested with 0.25% trypsin. The cells were suspended by pipetting, followed by centrifugation (1000 rpm, 5 min). The supernatant was aspirated and the cells were washed with PBS and centrifuged again to obtain a cell pellet. The cells were resuspended by adding and thoroughly mixing 500 μL of PBS in a microcentrifuge tube. Finally, the samples were stained with JC-1 (5,5′,6,6′-tetrachloro-1,1′,3,3′-tetraethylbenzimi-dazolylcarbocyanine iodide) and incubated in darkness at 37°C for 15 min. After the treatment, the cells were detected by flow cytometry.

[7] = tested on: normal human umbilical vein endothelial cell line (HUVECs); type: cell-based; settings: 48 h
Protocol: as §1, §2

MCF-7 cells [8] = test: Annexin V-FITC/PI apoptosis, flow cytometry; type: cell-based, human; settings: MCF-7, 2.5, 5 and 10 μg/mL, 48 h
Protocol: The apoptotic cells were quantified using an Annexin V-FITC (fluorescein isothiocyanate) (Sigma-Aldrich, St. Louis, MO, USA) cell apoptosis assay kit according to the instruction provided with the kit. In brief, about 1.5 × 10^5 cells were plated in 6-well plates and treated with galaxamide and representative compound (0, 2.5, 5, and 10 μg/mL) for 48 h. The cells were resuspended in […] binding buffer. Afterwards, […] was added and then incubated in darkness at room temperature for 10 min. The cells were again resuspended in […] binding buffer and stained with […] (propidium iodide). The prepared cells were then analyzed using a flow cytometry (Coulter Epics Elite, Miami, FL, USA). The cells in the FITC-positive and PI-negative fractions were regarded as apoptotic cells.

MCF-7 cells [9] = test: Cell cycle analysis by PI staining, flow cytometry; type: cell-based, human; settings: MCF-7, 2.5, 5.0 and 10.0 μg/mL, 48 h
Protocol: MCF-7 cells with the density of about 1.5 × 10^5 were incubated with galaxamide and representative analogue (0, 2.5, 5, and 10 μg/mL) for 48 h. Afterwards, collected cells were washed twice with PBS and centrifugation (1000 rpm, 5 min), then fixed using 70% ethanol for 12 h at 4°C. Ethanol was removed by centrifugation (2000 rpm, 5 min), and the cells were washed twice with PBS. Cells were then resuspended in […] and kept at 37°C for 15 min. The cell cycle was analyzed by flow cytometry measuring the amount of PI-labeled DNA in fixed cells.

[10] = from Table 1 IC50 values (fits MCF-7)

SMILES: N.N.[Cl][Pt][Cl] [DPP, reference compound]
IC50 (μg/mL) values in various cell lines, MCF-7 ([1]; MCF-7, MTT, 48 h, mean ± SD of three experiments): 14.61 ± 2.01 µg/mL
IC50 (μg/mL) values in various cell lines, MD-MBA-231 ([2]; MD-MBA-231, MTT, mean ± SD of three experiments): 13.75 ± 0.56 µg/mL
IC50 (μg/mL) values in various cell lines, HeLa ([3]; HeLa, MTT, mean ± SD of three experiments): 8.90 ± 0.89 µg/mL
IC50 (μg/mL) values in various cell lines, HepG2 ([4]; HepG2, MTT, mean ± SD of three experiments): 10.43 ± 1.23 µg/mL

SMILES: CC(C)C[C@@H]1NC(=O)[C@H](CC(C)C)N(C)C(=O)[C@H](CC(C)C)NC(=O)[C@H](CC(C)C)N(C)C(=O)[C@H](CC(C)C)NC1=O [Galaxamide, galaxamide] (HELM PEPTIDE1{L.L.[meL].L.[meL]}$PEPTIDE1,PEPTIDE1,1:R1-5:R2$$$V2.0)
intracellular ROS (MCF-7 cells [5]): induced ROS in a dose-dependent manner
JC-1 fluorescence ratio (red/green), MMP (MCF-7 cells [6]): reduced dose dependently

SMILES: COc1cccc2c1C(=O)c1c(O)c3c(c(O)c1C2=O)C[C@@](O)(C(=O)CO)C[C@@H]3O[C@H]1C[C@H](N)[C@H](O)[C@H](C)O1 [Doxorubicin, reference compound]
IC50 ([1]; Homo sapiens, MCF7, MCF-7, MTT, 48 h, mean ± SD of three experiments, read-out: IC50 (μg/mL) values in various cell lines, MCF-7): 0.5 ± 0.48 µg/mL (≈ 0.92 µM)
IC50 ([2]; Homo sapiens, MD-MBA-231, MTT, mean ± SD of three experiments, read-out: IC50 (μg/mL) values in various cell lines, MD-MBA-231): 1.29 ± 0.57 µg/mL (≈ 2.37 µM)
IC50 ([3]; Homo sapiens, HeLa, MTT, mean ± SD of three experiments, read-out: IC50 (μg/mL) values in various cell lines, HeLa): 0.32 ± 0.22 µg/mL (≈ 0.589 µM)
IC50 ([4]; Homo sapiens, HepG2, MTT, mean ± SD of three experiments, read-out: IC50 (μg/mL) values in various cell lines, HepG2): 2.27 ± 0.24 µg/mL (≈ 4.18 µM)

The next lines start with results.

IC50 (μg/mL) values in various cell lines, MCF-7 ([1]; 48 h): 4.76 ± 1.36 µg/mL (≈ 7.58 µM)
IC50 (μg/mL) values in various cell lines, MD-MBA-231 [2]: 5.83 ± 0.45 µg/mL (≈ 9.29 µM)
IC50 (μg/mL) values in various cell lines, HeLa [3]: 13.22 ± 1.12 µg/mL (≈ 21.1 µM)
IC50 (μg/mL) values in various cell lines, HepG2 [4]: 6.25 ± 1.03 µg/mL (≈ 9.95 µM)
SMILES: CC(C)C[C@@H]1NC(=O)[C@H](CC(C)C)N(C)C(=O)[C@H](Cc2ccccc2)NC(=O)[C@H](CC(C)C)N(C)C(=O)[C@H](CC(C)C)NC1=O [Compound 1, cyclo(Phe-N-Me-Leu-Leu-Leu-N-Me-Leu)]
IC50 (μg/mL) values in various cell lines, HUVECs [7]: >40 µg/mL

IC50 (μg/mL) values in various cell lines, MCF-7 ([1]; 48 h): 1.72 ± 0.85 µg/mL (≈ 2.58 µM)
IC50 (μg/mL) values in various cell lines, MD-MBA-231 [2]: 3.51 ± 1.32 µg/mL (≈ 5.26 µM)
IC50 (μg/mL) values in various cell lines, HeLa [3]: 5.32 ± 0.42 µg/mL (≈ 7.98 µM)
IC50 (μg/mL) values in various cell lines, HepG2 [4]: 3.98 ± 0.71 µg/mL (≈ 5.97 µM)
SMILES: CC(C)C[C@@H]1NC(=O)[C@H](CC(C)C)N(C)C(=O)[C@H](Cc2c[nH]c3ccccc23)NC(=O)[C@H](CC(C)C)N(C)C(=O)[C@H](CC(C)C)NC1=O [Compound 3, cyclo(Trp-N-Me-Leu-Leu-Leu-N-Me-Leu)] (HELM PEPTIDE1{L.L.[meL].W.[meL]}$PEPTIDE1,PEPTIDE1,1:R1-5:R2$$$V2.0)
cytotoxicity relative to parent structure galaxamide [1]: almost sixfold higher cytotoxicity
fold less active than doxorubicin [1, 10]: 3.44 fold
fold more active than anticancer drug DPP [1, 10]: 8.49 fold
induction of apoptosis (MCF-7 cells [8]): significantly induced the apoptosis of human breast cancer MCF-7 cells in a dose-dependent manner
intracellular ROS (MCF-7 cells [5]): induced ROS in a dose-dependent manner
cell cycle arrest (MCF-7 cells [9]): induced a significant G1 phase arrest of cell cycle progression in a dose-dependent manner
IC50 (μg/mL) values in various cell lines, HUVECs [7]: >40 µg/mL
JC-1 fluorescence ratio (red/green), MMP (MCF-7 cells [6]): reduced dose dependently

IC50 (μg/mL) values in various cell lines, MCF-7 ([1]; 48 h): 3.16 ± 0.92 µg/mL (≈ 4.66 µM)
IC50 (μg/mL) values in various cell lines, MD-MBA-231 [2]: 4.48 ± 2.24 µg/mL (≈ 6.61 µM)
IC50 (μg/mL) values in various cell lines, HepG2 [4]: 8.42 ± 1.82 µg/mL (≈ 12.4 µM)
SMILES: CC(C)C[C@@H]1NC(=O)[C@H](CC(C)C)N(C)C(=O)[C@H](Cc2ccc3ccccc3c2)NC(=O)[C@H](CC(C)C)N(C)C(=O)[C@H](CC(C)C)NC1=O [Compound 2, cyclo(Nal-N-Me-Leu-Leu-Leu-N-Me-Leu)] (HELM PEPTIDE1{[O=C([C@H](Cc1ccc2ccccc2c1)N[*:1])[*:2]].[meL].L.L.[meL]}$PEPTIDE1,PEPTIDE1,1:R1-5:R2$$$V2.0)
IC50 (μg/mL) values in various cell lines, HUVECs [7]: >40 µg/mL
